Molecular target: T1, recombinant HIV-1 protease (Human immunodeficiency virus type 1 group M subtype B, UniProt P04585)
T1 construct: recombinant HIV-1 protease (final concentration 2.18 nM) purchased from Bachem Bioscience; purchased Bachem Bioscience
Assay: Enzymatic fluorometric (FRET) assay for determining the inhibition constant (Ki) against HIV protease
Type: biochemical
Conditions: Ki (nM)
Description: An Enzymatic assay for determining the inhibition constant (Ki) of synthetic compounds targeting the HIV protease may be carried out as follows: This is a fluorometric assay based on the cleavage by protease of a substrate carrying a donor group (EDANS) and an acceptor group (DABCYL) on each side of the cleavage site, interacting together through fluorescence resonance energy transfer (FRET). Cleavage of the substrate by protease stops energy exchange between the two groups, resulting in a time-dependent increase in fluorescence intensity that is linearly related to the extent of substrate hydrolysis.
The enzymatic assay is done at 31° C. in white 96-well fluorescence microplates, in a total volume of 200 μL per well. The apparatus used for analysis is a FL600 fluorescence microplate reader (Biotek Instruments). […] Excitation of the fluorophore is done at 340 nm and emission at 485 nm is recorded continuously during the reaction, allowing determination of the enzyme's initial velocity (v0). At the end of the 4 min incubation, the potential inhibitor at a defined concentration in a volume of 4 μL is added to the reaction, and fluorescence readings are taken for another 4 min, allowing determination of enzyme velocity (vi) in the presence of the inhibitory compound. Several concentrations of the putative inhibitors are tested in the assay. After calculation of v0 and vi, the inhibition constant (Ki) of the compound is determined using the equation of Henderson: [formula]
and [I]=inhibitor concentration, [S]=substrate concentration,
Km=Michaelis-Menten constant, Kiapp=apparent Ki
Graphs are traced and the Ki determined using GraphPad Prism software v. 3.0.

SMILES	Ki [nM]
Cc1ccc(S(=O)(=O)N(CC(C)C)C(CCCCNC(=O)OCC2c3ccccc3-c3ccccc32)C(=O)O)cc1 (racemic) [Compound 2, Nα-Isobutyl-Nα-(4-methylbenzenesulfonyl)-Nε-(9-fluorenylmethoxycarbonyl)-DL-lysine]	5
Cc1ccc(S(=O)(=O)N(CC(C)C)C(CCCNC(=O)OCC2c3ccccc3-c3ccccc32)C(=O)O)cc1 (racemic) [Compound 6, Nα-Isobutyl-Nα-(4-methylbenzenesulfonyl)-Nδ-(9-fluorenylmethoxycarbonyl)-DL-ornithine]	180
Cc1ccc(S(=O)(=O)N(CC(C)C)C(CCCCN(CC(C)C)C(=O)CCc2ccccc2)C(=O)O)cc1 (racemic) [Compound 159, Nα, Nε-diisobutyl-Nα-(4-methylbenzenesulfonyl)-Nε-(3-phenylpropanoyl)-DL-lysine]	> 300
CC(C)CN([C@@H](CCCCNC(=O)OCC1c2ccccc2-c2ccccc21)C(=O)O)S(=O)(=O)c1ccc(C(C)(C)C)cc1 [Compound 10, Nα-Isobutyl-Nα-(4-tert-butylbenzenesulfonyl)-Nε-(9-fluorenylmethoxycarbonyl)-L-lysine]	257

Same assay, conditions: fluorometric FRET assay, 31° C., pH 4.7, recombinant HIV-1 protease 2.18 nM, substrate 10 μM; read-out: Ki

SMILES	Ki [nM]
Cc1ccc(S(=O)(=O)N(CC(C)C)C(CCCCNC(CCc2ccccc2)=NC#N)C(=O)O)cc1 (racemic) [Compound 204, Nα-Isobutyl-Nα-(4-methylbenzenesuIfonyl)-Nε-(dihydrothiocinnamoyl-N-cyanoamidine)-DL-lysine]	34

Same assay, conditions: fluorometric FRET assay, recombinant HIV-1 protease, pH 4.7, 31° C.; read-out: Ki

SMILES	Ki [nM]
CC(C)CN(C(CCCCNC(=O)OCC1c2ccccc2-c2ccccc21)C(=O)O)S(=O)(=O)c1ccc(Cl)cc1 (racemic) [Compound 1, Nα-Isobutyl-Nα-(4-chlorobenzenesulfonyl)-Nε-(9-fluorenylmethoxycarbonyl)-DL-lysine]	20.5
CC(C)CN(C(CCCCNC(=O)OCC1c2ccccc2-c2ccccc21)C(=O)O)S(=O)(=O)c1ccc(F)cc1 (racemic) [Compound 3, Nα-Isobutyl-Nα-(4-fluorobenzenesulfonyl)-Nε-(9-fluorenylmethoxycarbonyl)-DL-lysine]	17.4
CC(C)CN(C(CCCCNC(=O)OCc1ccccc1)C(=O)O)S(=O)(=O)c1ccc(I)cc1 (racemic) [Compound 48, Nα-Isobutyl-Nα-(4-iodobenzenesulfonyl)-Nε-benzyloxycarbonyl-DL-lysine]	> 100
Cc1ccc(S(=O)(=O)N(CC(C)C)C(CCCCNC(=S)CCc2ccccc2)C(=O)O)cc1 (racemic) [Compound 153, Nα-Isobutyl-Nα-(4-methylbenzenesulfonyl)-Nε-dihydrothiocinnamoyl-DL-lysine]	151
Cc1ccc(S(=O)(=O)N(CC(C)C)C(CCCCNC(CCc2ccccc2)=NC#N)C(=O)O)cc1 (racemic) [Compound 204, Nα-Isobutyl-Nα-(4-methylbenzenesuIfonyl)-Nε-(dihydrothiocinnamoyl-N-cyanoamidine)-DL-lysine]	> 200000
CC(C)CN([C@@H](CCCCNC(=O)OCC1c2ccccc2-c2ccccc21)C(=O)O)S(=O)(=O)c1ccc(Br)cc1 [Compound 4, Nα-Isobutyl-Nα-(4-bromobenzenesulfonyl)-Nε-(9-fluorenylmethoxycarbonyl)-L-lysine]	11.4
CC(C)CN(C(CCCCNC(=O)OCc1ccccc1)C(=O)O)S(=O)(=O)c1ccc(Cl)cc1 (stereo not shown) [Compound 4]	> 100
COc1ccc(S(=O)(=O)N(CC(C)C)[C@@H](CCCCNC(=O)OCC2c3ccccc3-c3ccccc32)C(=O)O)cc1 [Compound 7, Nα-Isobutyl-Nα-(4-methoxybenzenesulfonyl)-Nε-(9-fluorenylmethoxycarbonyl)-L-lysine]	10.6
CC(C)CN([C@@H](CCCCNC(=O)OCC1c2ccccc2-c2ccccc21)C(=O)O)S(=O)(=O)c1cccc2ccccc12 [Compound 8, Nα-Isobutyl-Nα-(1-naphthalenesulfonyl)-Nε-(9-fluorenylmethoxycarbonyl)-L-lysine]	54.9
O=C(N[C@@H](CCNS(=O)(=O)c1ccc(Br)cc1)C(=O)O)OCC1c2ccccc2-c2ccccc21 [Compound 14, (S)-2-(9-Fluorenylmethoxycarbonylamino)-4-(4-bromobenzenesulfonylamino)-butanoic Acid]	49000
COC(=O)[C@H](CCCCNS(=O)(=O)c1ccc(Br)cc1)NC(=O)OCC1c2ccccc2-c2ccccc21 [Compound 15, Nα-(9-Fluorenylmethoxycarbonyl)-Nε-(4-bromobenzenesulfonyl)-L-lysine Methyl Ester]	47000

Reference: patent US6455587B1 (priority 2000, dated 2002)
